Assay [1] addresses T1, monoacylglycerol lipase (MAGL), mouse brain (Mus musculus, UniProt O35678).
T1 sequence (O35678 1-303): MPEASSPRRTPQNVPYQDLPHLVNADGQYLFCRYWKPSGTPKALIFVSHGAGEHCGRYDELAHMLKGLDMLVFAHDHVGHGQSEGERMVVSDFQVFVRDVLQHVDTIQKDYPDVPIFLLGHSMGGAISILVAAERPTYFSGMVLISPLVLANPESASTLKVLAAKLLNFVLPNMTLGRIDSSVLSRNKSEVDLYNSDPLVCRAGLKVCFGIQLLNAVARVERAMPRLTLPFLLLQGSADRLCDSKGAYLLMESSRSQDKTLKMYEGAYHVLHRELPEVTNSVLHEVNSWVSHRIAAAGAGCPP
The assay is described as follows: saturation autoradiography on brain sections. Particulars: labelled compound; [3H]T-401 […]; […] min; cerebral cortex.

Assay [2] concerns the target T2, monoacylglycerol lipase (MAGL), human temporal cortex (Homo sapiens, UniProt Q99685).
T2 sequence (Q99685 1-303): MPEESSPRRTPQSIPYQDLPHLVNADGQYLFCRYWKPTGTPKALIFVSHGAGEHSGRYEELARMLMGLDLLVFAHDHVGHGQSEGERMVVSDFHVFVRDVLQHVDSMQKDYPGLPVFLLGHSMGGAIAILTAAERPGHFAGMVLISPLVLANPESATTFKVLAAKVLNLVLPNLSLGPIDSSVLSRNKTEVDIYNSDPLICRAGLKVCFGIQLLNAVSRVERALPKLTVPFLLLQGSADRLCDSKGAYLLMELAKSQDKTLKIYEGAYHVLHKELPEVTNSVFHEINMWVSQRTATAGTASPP
Kind of assay: saturation autoradiography on brain sections. The following applies: labelled compound, [3H]T-401 […] min, room temperature.

The target of assay [3] is T1, monoacylglycerol lipase (MAGL), mouse brain. The assay is described as follows: displacement autoradiography on brain sections. Particulars: unlabelled T-401 against […] [3H]T-401; hippocampus and cerebral cortex.
Assay [4] addresses T2, monoacylglycerol lipase (MAGL), human temporal cortex. Kind of assay: displacement autoradiography on brain sections. The following applies: unlabelled T-401 against […] [3H]T-401, room temperature.

The source of these data is paper doi:10.1101/2025.06.24.661388v1 (biorxiv, 2025).

What is called Kd is a measure of binding affinity in units of concentration. Read a high Kd as weaker binding. What is called IC50 is the concentration that inhibits the measured activity by half. Lower therefore signals higher potency. As to `Cc1ccnc(F)c1-c1cccc(N2C[C@H](N3CCN(C(=O)c4nccs4)CC3)CC2=O)c1` [T-401, (R)-1-(3-(2-fluoro-4-methylpyridin-3-yl)phenyl)-4-(4-(thiazole-2-carbonyl)piperazin-1-yl)pyrrolidine-2-one], the results for the Kd in assay [1] and in assay [2] were 0.0058 µM and 0.0047 ± 0.0008 µM, respectively. Besides, the results for the IC50 in assay [3] and in assay [4] were 0.041 µM and 0.032 µM, respectively.
